Reference: US8921376B2, “Pyrrolopyridines useful as inhibitors of protein kinase” (Vertex Pharmaceuticals Incorporated, priority 2005, dated 2014)

How the values were obtained:
Format in all cases: biochemical
JAK3 = molecular target: T1, JAK3 (Homo sapiens, UniProt P52333); assay: JAK3 inhibition assay (33P incorporation into poly(Glu)4Tyr)
T1 sequence (P52333 1-1124): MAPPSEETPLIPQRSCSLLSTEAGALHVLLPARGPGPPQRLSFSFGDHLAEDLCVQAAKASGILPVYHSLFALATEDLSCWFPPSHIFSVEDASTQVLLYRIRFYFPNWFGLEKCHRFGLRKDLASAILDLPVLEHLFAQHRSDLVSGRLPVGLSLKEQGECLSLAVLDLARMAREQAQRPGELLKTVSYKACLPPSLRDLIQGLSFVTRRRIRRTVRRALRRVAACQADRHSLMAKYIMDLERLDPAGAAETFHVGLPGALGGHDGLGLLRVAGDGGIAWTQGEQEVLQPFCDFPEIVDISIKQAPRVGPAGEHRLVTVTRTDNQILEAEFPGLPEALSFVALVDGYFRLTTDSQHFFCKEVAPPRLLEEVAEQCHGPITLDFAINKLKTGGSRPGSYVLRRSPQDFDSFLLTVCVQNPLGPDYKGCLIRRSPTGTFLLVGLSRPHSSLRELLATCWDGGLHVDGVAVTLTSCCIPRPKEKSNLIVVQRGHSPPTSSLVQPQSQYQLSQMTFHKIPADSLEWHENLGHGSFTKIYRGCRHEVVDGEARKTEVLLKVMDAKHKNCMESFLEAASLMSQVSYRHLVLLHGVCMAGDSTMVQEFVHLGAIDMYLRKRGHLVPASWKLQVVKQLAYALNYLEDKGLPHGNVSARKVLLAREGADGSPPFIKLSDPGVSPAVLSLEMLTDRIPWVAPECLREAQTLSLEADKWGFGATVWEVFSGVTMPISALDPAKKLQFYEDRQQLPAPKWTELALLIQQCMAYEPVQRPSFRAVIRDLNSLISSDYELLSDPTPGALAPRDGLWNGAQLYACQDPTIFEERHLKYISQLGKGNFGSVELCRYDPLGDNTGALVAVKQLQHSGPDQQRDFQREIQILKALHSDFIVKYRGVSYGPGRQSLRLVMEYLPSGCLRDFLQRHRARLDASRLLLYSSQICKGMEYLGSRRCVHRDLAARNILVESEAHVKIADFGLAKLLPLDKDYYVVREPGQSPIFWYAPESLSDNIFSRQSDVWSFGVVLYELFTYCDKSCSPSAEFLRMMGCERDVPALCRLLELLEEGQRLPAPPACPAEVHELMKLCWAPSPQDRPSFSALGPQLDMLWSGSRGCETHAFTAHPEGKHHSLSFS
Outline: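 Human JAK3 at 1 nM phosphorylated 1 μM poly(Glu)4Tyr using 5 μM [33P]ATP in HEPES pH 7.4 buffer with MgCl2, DTT and BSA. Reactions ran 20 min at 25° C. and were stopped with TCA. 33P incorporation was measured by scintillation after glass-fiber filter capture.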

ROCK I = ROCK I (Homo sapiens, UniProt Q13464); assay: ROCK-I inhibition assay (radioactive enzyme assay, MBP substrate)
Outline: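 Human ROCK at 5 nM phosphorylated 27 μM myelin basic protein with 13 μM [γ-33P]ATP (final) in HEPES pH 7.5, MgCl2, NaCl, DTT and 1.5% DMSO. Reactions ran 2 h at room temperature before TCA quench and filter-plate scintillation counting. After background subtraction, data were fit to give Ki(app).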

JAK2 = JAK2 (Homo sapiens, UniProt O60674); assay: JAK2 inhibition assay (as Example 3 with JAK-2 enzyme)
Outline: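 Radiometric JAK2 kinase assay: poly(Glu)4Tyr substrate at final 15 μM, ATP at final 12 μM with [33P]; buffer 100 mM HEPES pH 7.4, 1 mM DTT, 10 mM MgCl2, 25 mM NaCl, 0.01% BSA. 20 min at 25 °C, TCA-stopped, 33P incorporation counted after filter capture.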

[1] = Table 6, enzyme inhibition data (Ki)
[2] = enzyme inhibition, Ki(app), Table 5

JAK2, sequence (O60674 whole entry): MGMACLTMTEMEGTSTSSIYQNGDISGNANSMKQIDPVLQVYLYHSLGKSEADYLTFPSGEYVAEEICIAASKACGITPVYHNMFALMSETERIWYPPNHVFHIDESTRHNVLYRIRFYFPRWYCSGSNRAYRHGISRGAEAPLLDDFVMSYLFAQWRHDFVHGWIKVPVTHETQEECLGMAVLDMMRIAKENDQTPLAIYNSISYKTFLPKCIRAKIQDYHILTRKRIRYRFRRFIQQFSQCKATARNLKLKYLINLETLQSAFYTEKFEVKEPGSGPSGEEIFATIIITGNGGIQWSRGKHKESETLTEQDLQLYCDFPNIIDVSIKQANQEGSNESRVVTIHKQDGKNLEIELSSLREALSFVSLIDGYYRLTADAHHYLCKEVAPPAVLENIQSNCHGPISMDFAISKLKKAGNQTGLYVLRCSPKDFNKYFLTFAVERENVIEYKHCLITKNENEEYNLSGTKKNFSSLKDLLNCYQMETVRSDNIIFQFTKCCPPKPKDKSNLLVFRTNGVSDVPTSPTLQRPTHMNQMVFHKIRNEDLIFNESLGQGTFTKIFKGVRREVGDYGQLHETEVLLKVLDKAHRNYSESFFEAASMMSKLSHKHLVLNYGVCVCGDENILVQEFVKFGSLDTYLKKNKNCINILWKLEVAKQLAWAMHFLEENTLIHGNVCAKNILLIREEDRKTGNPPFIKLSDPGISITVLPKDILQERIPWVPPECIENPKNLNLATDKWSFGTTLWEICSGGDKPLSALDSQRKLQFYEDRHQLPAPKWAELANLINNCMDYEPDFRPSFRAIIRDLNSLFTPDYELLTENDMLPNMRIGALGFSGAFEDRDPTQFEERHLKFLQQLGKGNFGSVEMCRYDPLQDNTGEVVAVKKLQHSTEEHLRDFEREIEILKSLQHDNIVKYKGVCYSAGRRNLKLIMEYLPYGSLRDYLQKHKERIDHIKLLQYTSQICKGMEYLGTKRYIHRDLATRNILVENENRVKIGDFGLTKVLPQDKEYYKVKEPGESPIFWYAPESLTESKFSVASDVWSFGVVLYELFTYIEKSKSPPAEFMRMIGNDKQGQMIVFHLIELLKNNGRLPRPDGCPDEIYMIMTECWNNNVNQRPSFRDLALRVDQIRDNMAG
ROCK I, sequence (Q13464 whole entry): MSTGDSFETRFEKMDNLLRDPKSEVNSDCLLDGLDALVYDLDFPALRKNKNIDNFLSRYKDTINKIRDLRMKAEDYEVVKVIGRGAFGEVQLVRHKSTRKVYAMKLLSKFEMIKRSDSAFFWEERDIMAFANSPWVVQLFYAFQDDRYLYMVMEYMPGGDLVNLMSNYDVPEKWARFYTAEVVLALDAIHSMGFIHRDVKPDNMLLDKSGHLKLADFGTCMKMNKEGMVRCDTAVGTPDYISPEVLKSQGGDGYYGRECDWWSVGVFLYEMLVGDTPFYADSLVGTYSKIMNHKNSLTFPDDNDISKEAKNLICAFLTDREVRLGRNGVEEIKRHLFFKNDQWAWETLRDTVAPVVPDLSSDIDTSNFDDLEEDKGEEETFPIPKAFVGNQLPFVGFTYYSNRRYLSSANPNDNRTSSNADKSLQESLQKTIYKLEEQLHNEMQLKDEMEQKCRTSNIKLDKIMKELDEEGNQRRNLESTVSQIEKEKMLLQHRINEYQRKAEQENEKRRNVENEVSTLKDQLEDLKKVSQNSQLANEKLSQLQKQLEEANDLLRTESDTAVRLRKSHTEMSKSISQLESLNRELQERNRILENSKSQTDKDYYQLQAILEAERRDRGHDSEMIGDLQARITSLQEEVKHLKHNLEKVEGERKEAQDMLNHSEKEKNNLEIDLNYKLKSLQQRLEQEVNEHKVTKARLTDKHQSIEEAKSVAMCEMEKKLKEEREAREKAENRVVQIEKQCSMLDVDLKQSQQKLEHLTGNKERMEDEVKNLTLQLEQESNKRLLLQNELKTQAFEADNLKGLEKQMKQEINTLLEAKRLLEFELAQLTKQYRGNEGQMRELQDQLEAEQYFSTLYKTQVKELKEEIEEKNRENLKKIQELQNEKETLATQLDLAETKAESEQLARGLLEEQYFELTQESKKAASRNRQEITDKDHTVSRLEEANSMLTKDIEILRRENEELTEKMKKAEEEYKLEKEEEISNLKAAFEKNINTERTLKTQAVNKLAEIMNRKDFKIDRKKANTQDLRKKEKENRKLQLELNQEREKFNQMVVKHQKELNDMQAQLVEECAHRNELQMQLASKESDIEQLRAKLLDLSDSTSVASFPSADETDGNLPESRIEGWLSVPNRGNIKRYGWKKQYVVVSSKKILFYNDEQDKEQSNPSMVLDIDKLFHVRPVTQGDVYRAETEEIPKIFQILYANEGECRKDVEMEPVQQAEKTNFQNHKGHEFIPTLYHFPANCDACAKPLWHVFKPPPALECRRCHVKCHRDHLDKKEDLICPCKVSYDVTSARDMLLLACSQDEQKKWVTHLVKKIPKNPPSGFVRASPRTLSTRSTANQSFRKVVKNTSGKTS

Ki (JAK3; [1])	Ki (ROCK I; [1])	Ki (JAK2; [1])	Ki (JAK3; enzyme inhibition, Table 5)	Ki (ROCK I; [2])	Ki (JAK2; enzyme inhibition, Table 5)	SMILES
–	–	–	500 to 5000 nM	< 500 nM	500 to 5000 nM	C1=C(c2ccnc3[nH]ccc23)CCNC1 [compound 45]
< 500 nM	500 to 5000 nM	< 500 nM	–	–	–	N#CC1CCCN1C(=O)c1cc(-c2c(Cl)cnc3[nH]ccc23)c[nH]1 (stereo not drawn) [compound 357]
500 to 5000 nM	500 to 5000 nM	500 to 5000 nM	–	–	–	O=C(c1cc(-c2ccnc3[nH]ccc23)c[nH]1)N1CCCC(O)C1 (stereo not drawn) [compound 372]
–	–	–	< 500 nM	< 500 nM	< 500 nM	CC(C)(C(=O)CC#N)c1cccc(-c2ccnc3[nH]ccc23)n1 [compound 125, 4-(6-(1H-pyrrolo[2,3-b]pyridin-4-yl)pyridin-2-yl)-4-methyl-3-oxopentanitrile]
> 5000 nM	> 4000 nM	> 5000 nM	–	–	–	Cc1cccc(C)c1-c1ccnc2[nH]ccc12 [compound 217]
500 to 5000 nM	500 to 5000 nM	500 to 5000 nM	–	–	–	CCOC(=O)[C@@H]1[C@@H](C)CCN1C(=O)c1csc(-c2ccnc3[nH]ccc23)n1 [compound 422]
–	–	–	< 500 nM	< 500 nM	< 500 nM	Cc1ccc(-c2ccnc3[nH]ccc23)cc1C [compound 110, 4-(3,4-Dimethyl-phenyl)-1H-pyrrolo[2,3-b]pyridine]
< 500 nM	< 500 nM	< 500 nM	–	–	–	O=C(NCC1CC1)c1cc(-c2ccnc3[nH]ccc23)c[nH]1 [compound 286]
< 500 nM	< 500 nM	< 500 nM	–	–	–	C=CCN(CC=C)C(=O)c1cc(-c2ccnc3[nH]ccc23)c[nH]1 [compound 298]
< 500 nM	< 500 nM	< 500 nM	–	–	–	O=C(NCC(F)(F)F)c1ccc(-c2ccnc3[nH]ccc23)s1 [compound 260]
< 500 nM	< 500 nM	< 500 nM	–	–	–	CC1CCCCN1C(=O)c1csc(-c2ccnc3[nH]ccc23)n1 (stereo not drawn) [compound 420]
–	–	–	< 500 nM	< 500 nM	500 to 5000 nM	CN(C)Cc1cccc(-c2ccnc3[nH]ccc23)c1 [compound 85, Dimethyl-[3-(1H-pyrrolo[2,3-b]pyridin-4-yl)-benzyl]-amine]
> 5000 nM	> 4000 nM	> 5000 nM	–	–	–	COc1cccc(OC)c1-c1ccnc2[nH]ccc12 [compound 222]
500 to 5000 nM	500 to 5000 nM	500 to 5000 nM	–	–	–	Clc1ccccc1-c1ccnc2[nH]ccc12 [compound 216]
500 to 5000 nM	> 4000 nM	< 500 nM	–	–	–	CN(C)C1CCN(C(=O)c2cc(-c3c(Cl)cnc4[nH]ccc34)c[nH]2)C1 (stereo not drawn) [compound 355]
< 500 nM	< 500 nM	< 500 nM	–	–	–	CCCCN(CC#N)C(=O)c1cc(-c2ccnc3[nH]ccc23)c[nH]1 [compound 300]
< 500 nM	< 500 nM	< 500 nM	–	–	–	C#CCN(C)C(=O)c1cc(-c2ccnc3[nH]ccc23)c[nH]1 [compound 307]
–	–	–	500 to 5000 nM	< 500 nM	500 to 5000 nM	c1cc(CNC2CC2)cc(-c2ccnc3[nH]ccc23)c1 [compound 86, Cyclopropyl-[3-(1H-pyrrolo[2,3-b]pyridin-4-yl)-benzyl]-amine]
500 to 5000 nM	500 to 5000 nM	< 500 nM	–	–	–	O=C(c1cc(-c2ccnc3[nH]ccc23)c[nH]1)N1CCC(CO)CC1 [compound 363]
–	–	–	< 500 nM	< 500 nM	< 500 nM	CC(C)(O)c1cccc(-c2ccnc3[nH]ccc23)n1 [compound 123, 2-(6-(1H-pyrrolo[2,3-b]pyridin-4-yl)pyridin-2-yl)propan-2-ol]
–	–	–	500 to 5000 nM	500 to 5000 nM	500 to 5000 nM	Clc1cnc2[nH]ccc2c1-c1cccc(N2CCCC2)n1 [compound 79, 5-Chloro-4-(6-(pyrrolidin-1-yl)pyridine-2-yl)-1H-pyrrolo[2,3-b]pyridine]
< 500 nM	< 500 nM	< 500 nM	–	–	–	O=C(NC1CC1)c1cc(-c2ccnc3[nH]ccc23)c[nH]1 [compound 285]
500 to 5000 nM	< 500 nM	500 to 5000 nM	–	–	–	Clc1ccc(-c2ccnc3[nH]ccc23)c(Cl)c1 [compound 210]

Continued, compound first:

SMILES	Ki (JAK3; [1])	Ki (ROCK I; [1])	Ki (JAK2; [1])	Ki (JAK3; enzyme inhibition, Table 5)	Ki (ROCK I; [2])	Ki (JAK2; enzyme inhibition, Table 5)
O=C(NCCC(F)(F)F)c1ccc(-c2ccnc3[nH]ccc23)cc1 [compound 268]	< 500 nM	< 500 nM	< 500 nM	–	–	–
Clc1ccccc1CCNc1cccc(-c2c(Cl)cnc3[nH]ccc23)n1 [compound 75, N-(2-Chlorophenethyl)-6-(5-chloro-1H-pyrrolo[2,3-b]pyridin-4-yl)pyridin-1-amine]	–	–	–	500 to 5000 nM	500 to 5000 nM	500 to 5000 nM
COc1ccc(OC)c(Nc2c(Cl)cnc3[nH]ccc23)c1 [compound 154]	< 500 nM	> 4000 nM	< 500 nM	–	–	–
C#CCN(C)C(=O)c1cc(-c2c(Cl)cnc3[nH]ccc23)c[nH]1 [compound 338]	< 500 nM	500 to 5000 nM	< 500 nM	–	–	–
CCN(Cc1ccccc1)C(=O)c1ccc(-c2ccnc3[nH]ccc23)s1 [compound 304]	< 500 nM	< 500 nM	< 500 nM	–	–	–
N#CCC(=O)N1CCCC(Nc2c(Cl)cnc3[nH]ccc23)C1 (stereo not drawn) [compound 188]	< 500 nM	500 to 5000 nM	< 500 nM	–	–	–
CCCN(CC1CC1)C(=O)c1cc(-c2c(F)cnc3[nH]ccc23)c[nH]1 [compound 392]	< 500 nM	500 to 5000 nM	< 500 nM	–	–	–
c1cc(NCC2COc3ccccc3O2)nc(-c2ccnc3[nH]ccc23)c1 (stereo not drawn) [compound 58, N-((2,3-Dihydrobenzo[b][1,4]dioxin-2-yl)methyl)-6-(1H-pyrrolo[2,3-b]pyridin-4-yl)pyridin-2-amine]	–	–	–	500 to 5000 nM	500 to 5000 nM	500 to 5000 nM
CC(=O)Nc1ccccc1-c1c(Cl)cnc2[nH]ccc12 [compound 128]	–	–	–	> 5000 nM	500 to 5000 nM	> 5000 nM
CN(CCO)c1cccc(-c2c(Cl)cnc3[nH]ccc23)n1 [compound 77]	–	–	–	< 500 nM	500 to 5000 nM	< 500 nM
CCC(=O)Nc1cccc(Nc2c(Cl)cnc3[nH]ccc23)c1 [compound 155]	< 500 nM	> 4000 nM	< 500 nM	–	–	–
CC(C)NC(=O)c1cc(-c2c(Cl)cnc3[nH]ccc23)c[nH]1 [compound 280]	< 500 nM	500 to 5000 nM	< 500 nM	–	–	–
C[C@H](Nc1nc(-c2ccnc3[nH]ccc23)nc2ccccc12)C(=O)NCC(F)(F)F [compound 134]	–	–	–	500 to 5000 nM	500 to 5000 nM	> 5000 nM
Clc1cnc2[nH]ccc2c1C1=CCCC1 [compound 28, 5-Chloro-4-cyclopentenyl-1H-pyrrolo[2,3b]pyridine]	–	–	–	< 500 nM	500 to 5000 nM	< 500 nM
Clc1cnc2[nH]ccc2c1-c1cn[nH]c1 [compound 80, 5-Chloro-4-(1H-pyrazol-4-yl)-1H-pyrrolo[2,3b]pyridine]	–	–	–	< 500 nM	500 to 5000 nM	< 500 nM
O=C(CC(F)(F)F)N1CC[C@@H](Nc2c(Cl)cnc3[nH]ccc23)C1 [compound 189]	500 to 5000 nM	> 4000 nM	< 500 nM	–	–	–
CC(C)(C)OCc1ccccc1-c1ccnc2[nH]ccc12 [compound 232]	> 5000 nM	> 4000 nM	> 5000 nM	–	–	–
Cc1ccc(C(N)=O)cc1Nc1c(Cl)cnc2[nH]ccc12 [compound 160]	500 to 5000 nM	> 4000 nM	500 to 5000 nM	–	–	–
COCCN(CCOC)C(=O)c1ccc(-c2ccnc3[nH]ccc23)s1 [compound 324]	< 500 nM	< 500 nM	< 500 nM	–	–	–
CCN(Cc1ccccn1)C(=O)c1cc(-c2c(Cl)cnc3[nH]ccc23)c[nH]1 [compound 333]	< 500 nM	> 4000 nM	< 500 nM	–	–	–
